Experimental data published in patent publication US9834550B2, “Pyridopyrimidinone compounds for modulating the catalytic activity of histone lysine demethylases (KDMs)” (Dong-A Socio Holdings Co., Ltd., priority 2014, dated 2017).

target: T1, Recombinant human JARID1B/KDM5B (Homo sapiens, UniProt Q9UGL1); test: LANCE Ultra TR-FRET demethylase assay with FLAG-tagged JARID1B; type: biochemical; details: 100 nM compound; 500 nM biotinylated H3K4me3 peptide substrate
T1 construct: purchased Active Motif 31432; host or cells: Sf9 insect cells
T1 sequence (Q9UGL1 whole entry): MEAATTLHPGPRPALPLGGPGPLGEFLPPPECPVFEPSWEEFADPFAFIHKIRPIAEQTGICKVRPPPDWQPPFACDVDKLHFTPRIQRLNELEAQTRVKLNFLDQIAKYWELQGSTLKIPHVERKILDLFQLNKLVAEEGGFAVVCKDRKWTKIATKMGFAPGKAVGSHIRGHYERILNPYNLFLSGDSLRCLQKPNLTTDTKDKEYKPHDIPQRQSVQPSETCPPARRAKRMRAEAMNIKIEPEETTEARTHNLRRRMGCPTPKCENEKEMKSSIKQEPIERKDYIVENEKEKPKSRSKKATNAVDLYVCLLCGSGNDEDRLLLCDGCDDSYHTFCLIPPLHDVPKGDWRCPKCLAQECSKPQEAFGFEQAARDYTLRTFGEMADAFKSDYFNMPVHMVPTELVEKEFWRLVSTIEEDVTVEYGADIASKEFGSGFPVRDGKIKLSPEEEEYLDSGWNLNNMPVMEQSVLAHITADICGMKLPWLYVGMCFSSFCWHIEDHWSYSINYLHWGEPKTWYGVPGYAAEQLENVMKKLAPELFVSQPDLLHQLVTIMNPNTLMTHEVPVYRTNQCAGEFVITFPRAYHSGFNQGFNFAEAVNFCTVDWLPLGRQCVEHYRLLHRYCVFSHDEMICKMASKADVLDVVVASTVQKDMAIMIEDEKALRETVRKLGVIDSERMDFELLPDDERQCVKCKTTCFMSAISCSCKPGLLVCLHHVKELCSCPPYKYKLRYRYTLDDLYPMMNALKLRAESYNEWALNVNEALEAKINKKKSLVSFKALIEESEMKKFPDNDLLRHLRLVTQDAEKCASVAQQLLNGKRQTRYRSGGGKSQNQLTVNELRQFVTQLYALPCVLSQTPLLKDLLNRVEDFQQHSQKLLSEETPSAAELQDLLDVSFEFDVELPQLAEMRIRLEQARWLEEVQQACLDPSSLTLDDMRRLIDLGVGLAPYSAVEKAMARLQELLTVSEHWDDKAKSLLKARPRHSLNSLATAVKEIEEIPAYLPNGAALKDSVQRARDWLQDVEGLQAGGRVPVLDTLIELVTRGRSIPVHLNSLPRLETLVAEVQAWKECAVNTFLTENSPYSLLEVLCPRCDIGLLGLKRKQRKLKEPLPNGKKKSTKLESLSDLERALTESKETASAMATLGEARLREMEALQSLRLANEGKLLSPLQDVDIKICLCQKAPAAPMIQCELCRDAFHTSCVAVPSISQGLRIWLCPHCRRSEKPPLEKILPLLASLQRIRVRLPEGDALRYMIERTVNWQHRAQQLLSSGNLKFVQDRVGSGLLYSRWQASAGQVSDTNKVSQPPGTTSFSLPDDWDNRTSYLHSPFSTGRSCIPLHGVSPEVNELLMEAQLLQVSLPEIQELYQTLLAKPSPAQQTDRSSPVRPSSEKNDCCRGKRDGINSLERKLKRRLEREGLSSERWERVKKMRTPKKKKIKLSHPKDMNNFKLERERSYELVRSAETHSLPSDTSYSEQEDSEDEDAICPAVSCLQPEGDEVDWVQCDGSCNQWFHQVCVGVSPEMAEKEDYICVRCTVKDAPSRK
From the text: FLAG-tagged JARID1B (also known as KDM5B) protein was screened against more than 170 compounds. For this compound screening, LANCE Ultra time-resolved fluorescence resonance energy transfer (TR-FRET) assay was employed using an europoium (Eu)-labeled antibody that can specifically recognize mono- or dimethylated peptides (H3K4me2/1) and ULight-streptavidin (ULight-SA), a small molecule fluorescent dye. When irradiated at 340 nm, the energy from the Eu donor is transferred to the ULight acceptor dye which, in turn, emits light primarily at 665 nm. The ratio between the intensity of primary emission at 665 nm and that of secondary emission at 590 nm was used to quantify the level of lysine methylation. As JARID1B removes more methyl moieties from tri-methylated substrate peptides (H3K4me3), the ratio increases until the enzyme reaction is terminated. In case, therefore, the compounds disrupt the enzymatic activity completely, the ratio becomes equal to a background value.
Recombinant human JARID1B/KDM5B (accession number NP_006609) of molecular weight 179.9 KDa was expressed in Sf9 insect cells and contains an N-terminal FLAG tag. The enzyme was obtained from Active Motif (Catalog No. 31432). The tri-methylated histone substrate peptide of purity greater than 95% was a synthetic peptide in which the first 21 amino acids correspond to the human histone H3 sequence with three extra amino acids and a biotin motif (GGK-biotin) linked to the C-terminus [sequence: ART-K (Me3)-QTARKSTGGKAPRKQLA-GGK-biotin-OH], (AnaSpec, Fremont, Calif. Catalog. No. ANA-1413). The reference inhibitory compound tranylcypromine (or trans-2-phenylcyclopropylamine hydrochloride, also known as, 2-PCPA) was purchased from Sigma (St. Louis, Mo. Cat. no. P8511). ULight-labeled streptavidin (ULight-SA, Catalog no. TRF0102), Eu-W1024-labeled anti-methyl-Histone H3 Lysine 4 (H3K4me1-2) Antibody (Catalog no. TRF0402), and LANCE detection buffer 10× (Catalog no. CR97-100) were obtained from PerkinElmer (Montreal, Quebec, Canada). The TR-FRET experiments were carried out in white, low-volume 384-wellplates purchased from PerkinElmer (ProxiPlate-384 Plus, Catalog no. 6008280).
The TR-FRET signal was measured in the presence both of the bio-H3K4me3 peptide and FLAG-JARID1B by detecting any H3K4me2/1 peptide produced in the assay system. Assays using only the bio-H3K4me2 peptide were served as a positive control. Robust enzymatic progressions were observed by using JARID1B at concentrations ranging from 10 to 30 nM. In a typical TR-FRET experiment, JARID1B was pre-incubated with or without 20 uM, 1 uM, or 0.1 uM of test-compounds (containing 1% DMSO final) for […]. The enzymatic reactions were initiated by the addition of 500 nM biotinylated H3K4me3 peptide substrate plus 500 uM of 2-OG, 25 uM Fe(II) and 2 mM ascorbate. The reaction buffer also contained 50 mM Hepes (pH7.5), 0.01% (v/v) Tween 20, and 50 mM NaCl. The reaction mixture was incubated for […] at room temperature before reading on an EnVision plate reader (PerkinElmer, Waltham, Mass.).

Cc1cnc(CNCc2nccc3c(=O)[nH]c(COc4ccc(F)c(Cl)c4)nc23)cn1 [Example 166, 2-((3-chloro-4-fluorophenoxy)methyl)-8-((((5-methylpyrazin-2-yl)methyl)amino)methyl)pyrido[3,4-d]pyrimidin-4(3H)-one] and CN1CCC(CNC(=O)CNCc2nccc3c(=O)[nH]c(COc4ccc(F)c(Cl)c4)nc23)C1 (centres unmarked) [Example 227, 2-(((2-((3-chloro-4-fluorophenoxy)methyl)-4-oxo-3,4-dihydropyrido[3,4-d]pyrimidin-8-yl)methyl)amino)-N-((1-methylpyrrolidin-3-yl)methyl)acetamide] fall in the same range of inhibition at 0.1 µM: 20 to 50% for the first, 20 to 50% for the second.

Compared with O=c1[nH]c(COCc2cccc(Cl)c2)nc2c(CNCC3CCNCC3)nccc12 [Example 206, 2-(((3-chlorobenzyl)oxy)methyl)-8-(((piperidin-4-ylmethyl)amino)methyl)pyrido[3,4-d]pyrimidin-4(3H)-one], O=c1[nH]c(COc2ccccc2Cl)nc2c(CNCC3CCNCC3)nccc12 [Example 122, 2-((2-chlorophenoxy)methyl)-8-(((piperidin-4-ylmethyl)amino)methyl)pyrido[3,4-d]pyrimidin-4(3H)-one] is lower in inhibition at 0.1 µM: > 50% for the first, 20 to 50% for the second.

First: O=c1[nH]c(C2Cc3ccccc3O2)nc2c(CNCC3CCNCC3)nccc12 (centres unmarked) [Example 197, 2-(2,3-dihydrobenzofuran-2-yl)-8-(((piperidin-4-ylmethyl)amino)methyl)pyrido[3,4-d]pyrimidin-4(3H)-one]
Second: O=c1[nH]c(C2CCc3ccccc3O2)nc2c(CNCC3CCNCC3)nccc12 (centres unmarked) [Example 199, 2-(chroman-2-yl)-8-(((piperidin-4-ylmethyl)amino)methyl)pyrido[3,4-d]pyrimidin-4(3H)-one]
The inhibition at 0.1 µM of the first is higher: 20 to 50% for the first, < 20% for the second.

N#Cc1cccc(OCc2nc3c(CNCC4CCNCC4)nccc3c(=O)[nH]2)c1 [Example 138, 3-((4-oxo-8-(((piperidin-4-ylmethyl)amino)methyl)-3,4-dihydropyrido[3,4-d]pyrimidin-2-yl)methoxy)benzonitrile] and N#Cc1ccc(OCc2nc3c(CNCC4CCNCC4)nccc3c(=O)[nH]2)cc1 [Example 129, 4-((4-oxo-8-(((piperidin-4-ylmethyl)amino)methyl)-3,4-dihydropyrido[3,4-d]pyrimidin-2-yl)methoxy)benzonitrile] fall in the same range of inhibition at 0.1 µM: 20 to 50% for the first, 20 to 50% for the second.

O=c1[nH]c(COc2ccccc2)nc2c(CNCC3CCNCC3)nccc12 [Example 123, 2-(phenoxymethyl)-8-(((piperidin-4-ylmethyl)amino)methyl)pyrido[3,4-d]pyrimidin-4(3H)-one] and O=c1[nH]c(COc2ccc(Cl)c(F)c2)nc2c(CNCC3CCNCC3)nccc12 [Example 127, 2-((4-chloro-3-fluorophenoxy)methyl)-8-(((piperidin-4-ylmethyl)amino)methyl)pyrido[3,4-d]pyrimidin-4(3H)-one] fall in the same range of inhibition at 0.1 µM: 20 to 50% for the first, 20 to 50% for the second.

First: O=c1[nH]c(COc2ccc(F)cc2F)nc2c(CNCC3CCNCC3)nccc12 [Example 124, 2-((2,4-difluorophenoxy)methyl)-8-(((piperidin-4-ylmethyl)amino)methyl)pyrido[3,4-d]pyrimidin-4(3H)-one]
Second: O=c1[nH]c(COc2ccc(F)c(Cl)c2)nc2c(CNCC3CCN(CCO)CC3)nccc12 [Example 188, 2-((3-chloro-4-fluorophenoxy)methyl)-8-((((1-(2-hydroxyethyl)piperidin-4-yl)methyl)amino)methyl)pyrido[3,4-d]pyrimidin-4(3H)-one]
The inhibition at 0.1 µM of the first is lower: 20 to 50% for the first, > 50% for the second.

O=c1[nH]c(COc2cccnc2)nc2c(CNCC3CCN(Cc4ccccc4)CC3)nccc12 [Example 109, 8-((((1-benzylpiperidin-4-yl)methyl)amino)methyl)-2-((pyridin-3-yloxy)methyl)pyrido[3,4-d]pyrimidin-4(3H)-one] and N[C@H]1CC[C@H](NCc2nccc3c(=O)[nH]c(COc4ccc(Cc5ccccc5)cc4)nc23)CC1 [Example 155, 8-((((1r,4r)-4-aminocyclohexyl)amino)methyl)-2-((4-benzylphenoxy)methyl)pyrido[3,4-d]pyrimidin-4(3H)-one] fall in the same range of inhibition at 0.1 µM: 20 to 50% for the first, 20 to 50% for the second.
